Test results as given in ChEMBL document CHEMBL1153343, “Liver X receptor agonists with selectivity for LXRbeta; N-aryl-3,3,3-trifluoro-2-hydroxy-2-methylpropionamides” (Bioorg Med Chem Lett, 2009).
pEC50: −log10 of the molar value. In brackets after ≈: the same amount, converted by molar mass. Activity calls are given as the source filed them. No cut-off for these calls is given here.

How the values were obtained:
[1] = molecular target: T1, Oxysterols receptor LXR-alpha (Homo sapiens, UniProt Q13133); assay: Agonist activity at LXRalpha ligand binding domain by FRET based SRC1 recruitment assay
T1 sequence (Q13133 whole entry): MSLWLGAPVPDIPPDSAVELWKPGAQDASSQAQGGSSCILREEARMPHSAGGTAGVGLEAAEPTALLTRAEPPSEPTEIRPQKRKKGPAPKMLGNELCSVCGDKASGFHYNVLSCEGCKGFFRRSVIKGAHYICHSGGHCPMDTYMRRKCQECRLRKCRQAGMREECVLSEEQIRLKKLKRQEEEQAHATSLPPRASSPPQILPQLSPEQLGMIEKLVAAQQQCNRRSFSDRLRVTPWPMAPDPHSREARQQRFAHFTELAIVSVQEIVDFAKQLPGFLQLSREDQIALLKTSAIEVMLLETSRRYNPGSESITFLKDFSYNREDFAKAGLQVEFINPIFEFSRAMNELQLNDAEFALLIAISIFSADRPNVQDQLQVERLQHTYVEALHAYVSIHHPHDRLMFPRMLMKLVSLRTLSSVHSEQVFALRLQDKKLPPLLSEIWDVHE

[2] = molecular target: T2, Oxysterols receptor LXR-beta (Homo sapiens, UniProt P55055); assay: Agonist activity at LXRbeta ligand binding domain by FRET based SRC1 recruitment assay
T2 sequence (P55055 whole entry): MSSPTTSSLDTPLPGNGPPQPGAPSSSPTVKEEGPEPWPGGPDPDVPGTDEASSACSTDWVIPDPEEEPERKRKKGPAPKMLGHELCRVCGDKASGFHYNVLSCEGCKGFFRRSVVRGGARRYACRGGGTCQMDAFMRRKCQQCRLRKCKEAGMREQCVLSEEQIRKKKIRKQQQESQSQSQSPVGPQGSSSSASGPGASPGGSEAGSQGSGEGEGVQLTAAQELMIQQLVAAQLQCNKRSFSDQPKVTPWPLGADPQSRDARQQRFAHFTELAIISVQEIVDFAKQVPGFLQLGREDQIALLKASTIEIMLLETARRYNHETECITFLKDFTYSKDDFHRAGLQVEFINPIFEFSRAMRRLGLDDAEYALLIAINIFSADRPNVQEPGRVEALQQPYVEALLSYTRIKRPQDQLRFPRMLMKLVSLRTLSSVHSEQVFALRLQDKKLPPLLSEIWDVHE

[3] = molecular target: T2, Oxysterols receptor LXR-beta; assay: Agonist activity at human LXRbeta expressed in human SH-SY5Y cells co-transfected with Gal4-LBD after 24 hrs by luciferase reporter gene assay; format: functional, cell-based
[4] = molecular target: T1, Oxysterols receptor LXR-alpha; assay: Agonist activity at human LXRalpha expressed in human SH-SY5Y cells co-transfected with Gal4-LBD after 24 hrs by luciferase reporter gene assay; format: functional, cell-based
[5] = molecular target: T3, Oxysterols receptor LXR-beta (Homo sapiens) (UniProt P55055); assay: Agonist activity at human LXRbeta expressed in human U2OS cells co-transfected with Gal4-LBD after 24 hrs by luciferase reporter gene assay; format: functional, cell-based
T3 sequence (whole entry): T2 sequence (P55055 whole entry)

[6] = molecular target: T4, Oxysterols receptor LXR-alpha (Homo sapiens) (UniProt Q13133); assay: Agonist activity at human LXRalpha expressed in human U2OS cells co-transfected with Gal4-LBD after 24 hrs by luciferase reporter gene assay; format: functional, cell-based
T4 sequence (whole entry): T1 sequence (Q13133 whole entry)

Mus musculus [7] = assay: Upregulation of ABCA1 mRNA level in mouse brain homogenates at 30 umol/kg, po daily once after 3 days relative to control; format: functional
Mus musculus [8] = assay: Upregulation of SREBP-1c mRNA level in mouse liver at 1.0 umol/kg, po daily once after 3 days relative to control; format: functional
[9] = Half life in po dosed rat; format: ADME, organism-based; details: in vivo
[10] = Permeability across human Caco-2 cell membrane; format: ADME, cell-based; details: read-out: permeability
[11] = Clearance in po dosed rat; format: ADME, organism-based; details: in vivo
Mus musculus [12] = assay: Upregulation of ABCG1 mRNA level in mouse brain homogenates at 30 umol/kg, po daily once after 3 days relative to control; format: functional
[13] = Solubility in 0.1 M phosphate buffer at pH 7.4 at 100 uM after 24 hrs by UV-TIC; format: physicochemical
Rattus norvegicus = assay: Volume of distribution in po dosed rat; format: ADME, organism-based; details: in vivo
[14] = Bioavailability in rat; format: ADME, organism-based; details: in vivo
Mus musculus [15] = assay: Upregulation of SREBP-1c mRNA level in mouse liver at 30 umol/kg, po daily once after 3 days relative to control; format: functional

pEC50 [1] | pEC50 [2] | pEC50 [3] | pEC50 [4] | Structure (SMILES) | other results
6.55 | 7.11 | 6.89 | 6.51 | O=C(O)Cc1cccc(OCCCN(Cc2cccc(C(F)(F)F)c2Cl)CC(c2ccccc2)c2ccccc2)c1 | –
5.51 | 5.63 | 5.42 | 5.44 | COC(=O)c1ccc(S(=O)(=O)N(C)c2ccc(NC(=O)C(C)(O)C(F)(F)F)c(Cl)c2)cc1 (stereo not drawn) | –
5.46 | 5.46 | < 4.52 | < 4.52 | COC(=O)CCc1ccc(S(=O)(=O)N(C)c2ccc(NC(=O)C(C)(O)C(F)(F)F)c(Cl)c2)cc1 (stereo not drawn) | –
< 4.00 | 6.06 | < 4.52 | < 4.52 | CC(O)(C(=O)Nc1ccc(N(Cc2ccccc2)S(=O)(=O)c2ccccc2Cl)cc1Cl)C(F)(F)F (stereo not drawn) | –
6.33 | 6.24 | < 4.52 | < 4.52 | C=CCN(c1ccc(NC(=O)C(C)(O)C(F)(F)F)c(Cl)c1)S(=O)(=O)c1ccccc1Cl (stereo not drawn) | –

Second part, the compound before the results:

Structure (SMILES) | pEC50 [1] | pEC50 [2] | pEC50 [3] | pEC50 [4] | other results
CN(c1ccc(NC(=O)C(C)(O)C(F)(F)F)c(Cl)c1)S(=O)(=O)c1ccc(CCC(=O)O)cc1 (stereo not drawn) | < 4.00 | < 4.00 | < 4.52 | < 4.52 | –
CN(c1ccc(NC(=O)[C@](C)(O)C(F)(F)F)c(Cl)c1)S(=O)(=O)c1ccccc1Cl | – | 6.20 | 6.09 | 5.74 | Activity [5]: inactive; Activity [6]: inactive
CN(c1ccc(NC(=O)[C@](C)(O)C(F)(F)F)c(Cl)c1)S(=O)(=O)c1ccccc1 | 5.48 | 5.72 | 6.02 | 5.30 | –
Cc1ccc(S(=O)(=O)N(C)c2ccc(NC(=O)[C@](C)(O)C(F)(F)F)c(Cl)c2)cc1 | 5.71 | 5.82 | 5.80 | 5.30 | –
CN(c1ccc(NC(=O)C(C)(O)C(F)(F)F)c(Cl)c1)S(=O)(=O)c1ccc(C#N)cc1 (stereo not drawn) | 5.47 | 5.59 | 5.57 | 5.30 | Activity [5]: inactive; fold change (FC) (Mus musculus [7]): 1.25; fold change (FC) (Mus musculus [8]): 3.6; half-life [9]: 4.4 h; Papp [10]: 28 ×10⁻⁶ cm/s; CL/F [11]: 24.6 mL/min/kg; Activity [6]: inactive; fold change (FC) (Mus musculus [12]): 1.3; solubility at 24 h, 100 µM [13]: 61 µM (≈ 28.2 µg/mL); Vd (Rattus norvegicus): 4.1 L/kg; bioavailability [14]: 39%; fold change (FC) (Mus musculus [15]): 1.3
CC(O)(C(=O)Nc1ccc(N(CC2CC2)S(=O)(=O)c2ccccc2Cl)cc1Cl)C(F)(F)F (stereo not drawn) | 5.97 | 6.03 | < 4.52 | < 4.52 | –
CCN(c1ccc(NC(=O)C(C)(O)C(F)(F)F)c(Cl)c1)S(=O)(=O)c1ccccc1Cl (stereo not drawn) | 6.00 | 6.10 | 5.12 | 5.07 | –
CN(c1ccc(NC(=O)C(C)(O)C(F)(F)F)c(Cl)c1)S(=O)(=O)c1ccc(C(=O)O)cc1 (stereo not drawn) | < 4.00 | < 4.00 | < 4.52 | < 4.52 | –
C[C@H](CC[C@@H]1OC1(C)C)[C@H]1CC[C@H]2[C@@H]3CC=C4C[C@@H](O)CC[C@]4(C)[C@H]3CC[C@]12C [24(S),25-EPOXYCHOLESTEROL] | 6.55 | 6.54 | 6.40 | – | –
